Measured values taken from patent publication US6911443B2 (Bayer Aktiengesellschaft, priority 2000, dated 2005).
Where two headings read alike, the source gives them in different places.

Target: T1, human Syk (GST-Syk) (Homo sapiens, UniProt P43405)
T1 construct: A cDNA fragment encoding human Syk openreading frame was cloned; made in house; host or cells: Sf21 insect cells (baculovirus, transfer vector pAcG2T)
Test: Syk tyrosine kinase inhibitory assay
Format: biochemical
How it was run: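 Readout: streptavidin-captured biotin-AL peptide probed with europium-4G10 anti-phosphotyrosine, time-resolved fluorescence (ex 340/em 615 nm). Reaction ran 1 h at room temperature with 30 μM ATP, 3 μM peptide, 0.65 nM Sf21-expressed GST-Syk and 0.25% DMSO, pH 8.0.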

[1] = in vitro, compounds as yielded by solid phase synthesis, purity about 40 to 90%, read-out: Activity grade (IC50 class)
[2] = Table 17, IC50 classes, read-out: Activity grade
[3] = in vitro, compounds as yielded by solid phase synthesis, purity about 40 to 90%
[4] = Table 11, read-out: Activity grade

COc1ccc(-c2cc3nccn3c(Nc3ccc(C(N)=O)cc3)n2)cc1OC [Example 11-36]
IC50 [1]: < 500 nM

COc1ccc(-c2cc3nccn3c(Nc3ccc(CCCC(=O)O)cc3)n2)cc1OC [Example 11-21]
IC50 [1]: < 500 nM

Cc1c(N)cccc1Oc1nc(-c2ccc(OC3CCCC3)c(O)c2)cc2ncnn12 [compound 15]
IC50 [2]: 2000 to 10000 nM

COc1ccc(-c2cc3nccn3c(N3CCC(C(=O)c4ccc(F)cc4)CC3)n2)cc1OC [Example 9-61]
Activity grade (IC50 class) [3]: C-D

COc1ccc(-c2cc3nccn3c(SCC(=O)O)n2)cc1OC [Example 26]
IC50 [2]: 2000 to 10000 nM

COc1ccc(-c2cc3nccn3c(N3CCN(Cc4ccc5c(c4)OCO5)CC3)n2)cc1OC [Example 9-32]
IC50 [1]: 2000 to 10000 nM

CCSc1nc(-c2ccc(NCCCN3CCOCC3)c(OC)c2)cc2nccn12 [Example 17-12]
IC50 (Table 16, read-out: Activity grade): < 500 nM

CCOC(=O)C(C)Sc1nc(-c2ccc(OC)c(OC)c2)cc2nccn12 (stereo not shown) [Example 14-14]
IC50 (Table 13, read-out: Activity grade): 500 to 2000 nM

COc1cc(-c2cc3nccn3c(Nc3ccc(Br)cc3)n2)ccc1N1CCOCC1 [Example 12-53]
IC50 [4]: < 500 nM

CCN(CC)CCOc1ccc(-c2cc3nccn3c(Nc3ccccc3)n2)cc1OC [Example 12-35]
IC50 [4]: 2000 to 10000 nM

COc1ccc(-c2cc3nccn3c(N(C)c3ccccc3OC)n2)cc1OC [Example 11-25]
IC50 [1]: 500 to 2000 nM

COc1ccc(-c2cc3nccn3c(Nc3ccc(Cl)nc3)n2)cc1OC [Example 12-30]
IC50 [4]: < 500 nM

COc1ccc(-c2cc3nccn3c(Nc3ccc(O)cc3)n2)cc1OC [Example 11-29]
IC50 [1]: < 500 nM

COc1ccc(-c2cc3nccn3c(Nc3ccc(F)cc3)n2)cc1OC [Example 11-60]
IC50 [1]: < 500 nM

CNC(=O)CCc1ccc(Sc2nc(-c3ccc(OC)c(OC)c3)cc3nccn23)cc1 [Example 21]
IC50 [2]: < 500 nM

COc1ccc(-c2cc3nccn3c(Nc3ccccc3O)n2)cc1OC [Example 11-31]
IC50 [1]: < 500 nM

COc1ccc(-c2cc3nccn3c(Nc3ccccc3)n2)cc1N [compound 1]
IC50 [2]: 500 to 2000 nM

COc1cc(-c2cc3nccn3c(Nc3ccccc3)n2)ccc1OCCCN1CCN(C)CC1 [Example 12-36]
IC50 [4]: < 500 nM

COCCN(C)c1ccc(-c2cc3nccn3c(Nc3ccc(C(F)(F)F)cc3)n2)cc1OC [Example 12-43]
IC50 [4]: < 500 nM

COc1ccc(Nc2nc(-c3ccc(NCCCN4CCOCC4)c(OC)c3)cc3nccn23)cc1 [Example 12-38]
IC50 [4]: < 500 nM

COc1cc(-c2cc3nccn3c(Nc3ccccc3)n2)ccc1NCCCN1CCCC1=O [Example 12-40]
IC50 [4]: < 500 nM

COc1ccc(-c2cc3nccn3c(Sc3ccc(CCC(=O)O)cc3)n2)cc1OC(C)=O [Example 13-25]
IC50 [1]: < 500 nM

COCCN(C)c1ccc(-c2cc3nccn3c(Nc3ccc(OC)cc3)n2)cc1OC [Example 12-51]
IC50 [4]: < 500 nM

CCOC(=O)CN(C)c1nc(-c2ccc(OC)c(OC)c2)cc2nccn12 [Example 9-77]
IC50 [1]: 2000 to 10000 nM

COc1ccc(-c2cc3nccn3c(Nc3ccc(CCN4CCOCC4)cc3)n2)cc1OC [Example 12-1]
IC50 [4]: 500 to 2000 nM

CCSc1nc(-c2ccc([N+](=O)[O-])c(OC)c2)cc2nccn12 [Example 8-8]
IC50 [1]: 2000 to 10000 nM

CCSc1nc(-c2ccc(OC(=O)N(C)C)c(OC)c2)cc2nccn12 [Example 3-12]
IC50 (Activity grade (IC50 class), in vitro, compounds as yielded by solid phase synthesis, purity about 40 to 90%): 2000 to 10000 nM

COc1ccc(-c2cc3nccn3c(N(C)c3ccc(F)cc3F)n2)cc1OC [Example 11-44]
IC50 [1]: < 500 nM

COc1ccc(-c2cc3nccn3c(NC3CCCC[C@@H]3N)n2)cc1OC (stereo partly shown) [Example 9-86]
IC50 [1]: 500 to 2000 nM

COCCN(C)c1ccc(-c2cc3nccn3c(Nc3ccccc3)n2)cc1OC [Example 12-41]
IC50 [4]: < 500 nM

COc1ccc(-c2cc3nccn3c(Nc3ccc(OC(C)C)cc3)n2)cc1OC [Example 11-98]
IC50 [1]: < 500 nM

COc1cc(-c2cc3nccn3c(Nc3ccccc3S(N)(=O)=O)n2)ccc1OCCN1CCOCC1 [Example 9-97]
Activity grade (IC50 class) [3]: C-D

COc1ccc(-c2cc3nccn3c(Nc3ccc(Br)cc3C(=O)O)n2)cc1OC [Example 11-85]
IC50 [1]: < 500 nM

COc1ccc(-c2cc3nccn3c(N3CCCC3)n2)cc1OC [Example 9-55]
IC50 [1]: 500 to 2000 nM
